Measurements: the METLIN SMRT retention time set (Domingo-Almenara et al. 2019)

Assay: gradient 5% acetonitrile 3 min, to 50% in 2 min, to 85% in 15 min, held 3 min, 100 µL/min
Conditions: column: Zorbax Extend-C18 2.1 x 50 mm; eluents: water / acetonitrile, 0.1% formic acid
Method in brief: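 The mobile phases were water and acetonitrile, each with 0.1% formic acid, pumped at 100 μL/min through a Zorbax Extend-C18 column (2.1 × 50 mm, 1.8 μm). Pure standards were injected as mixtures of ~100 molecules and detected by a quadrupole time-of-flight mass spectrometer in positive and negative ionization mode. Retention time came from computationally picked adduct peaks, each inspected by hand.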

| Compound | RP-LC retention time [s] |
| --- | --- |
| CNC(=O)c1c(NC(=O)c2cccc(OC)c2)sc2c1CCC2 | 1050 |
| COc1ccc(CCC(=O)NCCCN2CCOC(c3ccccc3)C2)cc1 (stereo not given) | 570 |
| Cc1[nH]nc(-c2c(C)sc(C)c2S(=O)(=O)NC2CCCc3ccccc32)c1C (stereo not given) | 1130 |
| O=C(Nc1ccc(-c2ccc3nnc(-c4ccncc4)n3n2)cc1)c1cccc(Cl)c1 | 675 |
| Cc1ccc2cc(CCC(=O)NCc3ccncc3)c(=O)[nH]c2c1 | 570 |
| CCc1ccc2c(c1)-c1ccccc1S(=O)(=O)N2CC(=O)NCc1ccccn1 | 720 |
| OC[C@H]1O[C@@H](n2cnc3c(N[C@H]4CCC[C@@H]4O)ncnc32)[C@@H](O)C1O (stereo not given in full) | 590 |
| O=C(CC1CCCC1)Nc1ccc2c(c1)CCC(=O)N2 | 684 |
| Cc1ccc(S(=O)(=O)N2C[C@@H](F)C[C@H]2C(=O)N2CCOCC2)c(C)c1 | 740 |
| Cc1ccc(NC(=O)N2CCc3cn(C)c4cccc(c34)C2)cc1 | 629 |
| O=C(CSc1ccc(N2CCCC(C(=O)NC3CC3)C2)nn1)Nc1ccccc1F (stereo not given) | 643 |
| Cc1ccc(-c2nc(CN3CCN(C(=O)NC(C)C)CC3)c(C)o2)cc1 | 592 |
| CCCCNc1c(C(=O)OC)c(=O)[nH]c2c(Cl)cccc12 | 783 |
| CCc1cccc(NC(=O)c2cc(C(C)C)n3nccc3n2)c1 | 1240 |
| O=C(Cn1cnc2nc(N3CCCC(C(=O)NC4CC4)C3)sc2c1=O)NC1CCCCC1 (stereo not given) | 652 |
| Cc1ccc(NS(=O)(=O)c2cn(CC(C)C)c3ncccc23)c(C)c1 | 1050 |
| CCn1cc(CN2C[C@@H](COC)[C@H](c3ccccn3)C2)c(C)n1 | 573 |
| Clc1ccccc1OCc1nn2c(CSc3ccccc3)nnc2s1 | 1020 |
| CCn1cc(C(=O)N2C[C@@H](COCC3CC3)[C@H](c3nc(C)no3)C2)cn1 | 714 |
| Cn1nccc1C(=O)N1CCC(c2nncn2Cc2ccccc2)CC1 | 624 |
| Cc1nnc2ccc(N3CCCC3)nn12 | 726 |
| CCc1ccc(C(=O)Nc2nnc(SCc3nnc(-c4ccccc4)o3)s2)cc1 | 1000 |
| COC(=O)c1cn(Cc2ccc(OC)c(F)c2)nc1S(=O)(=O)N1CCCCC1 | 945 |

| Compound | RP-LC retention time [s] |
| --- | --- |
| O=C(Cc1cccc(F)c1)Nc1cc(-c2cccs2)no1 | 947 |
| CCn1ncc(Cl)c1C(=O)N1CCCC1c1ccc(F)cc1 (stereo not given) | 912 |
| CCCCN(C)C(=O)CCC1CCN(c2cc(NC3CC3)ncn2)CC1 | 654 |
| Cc1ccc(/C=C/c2nc(-c3cccc(-c4ccnn4C)c3)no2)cc1 | 1270 |
| O=C(c1cnccn1)N1CCCCC1c1nc(-c2ccc(F)cc2)no1 (stereo not given) | 918 |
| O=C([C@@H]1C[C@H](F)CN1S(=O)(=O)c1cccc(F)c1)N1CCCCC1 | 805 |
| COc1ccc(Br)cc1CNC(=O)CN1C(=O)CCCc2ccccc21 | 892 |
| CC1(CNS(=O)(=O)c2ccc(F)cc2F)CCOCC1 | 779 |
| Cc1ccc(CNC(=O)c2cn3c(n2)COCC3)cc1C | 704 |
| CCOc1ccccc1NC(=O)c1ccccc1[N+](=O)[O-] | 823 |
| O=C(Nc1ccc2nc3n(c(=O)c2c1)CCCCC3)C(=O)NC1CC1 | 687 |
| COc1ccc(Cl)cc1NS(=O)(=O)c1cn(CC(C)C)c2ncccc12 | 765 |
| O=C(NC1CCN(c2cc(N3CCOCC3)cnn2)C1)c1ccc(Cl)s1 (stereo not given) | 610 |
| COc1nn(C)cc1C(=O)Nc1cccc(-c2cn3c(n2)SCC3)c1 | 566 |
| Cc1ccc(C(=O)NCc2ccc(N3CCCC3)nc2)s1 | 601 |
| CC(C)Sc1nccn2nc(-c3cccs3)cc12 | 1280 |
| COc1ccc(C(=O)Oc2cc(C)nn2-c2nc3ccccc3[nH]2)cc1 | 643 |
| COCCCN1C(=O)CSc2c(c3ccccc3n2C)C1C(=O)NCc1ccc(F)cc1 (stereo not given) | 893 |
| CCOc1ccc(OCC)c(NC(=O)Cc2csc3nc(-c4ccc(OC)c(OC)c4)cn23)c1 | 870 |
| CCn1cc(-c2ccc(Cl)cc2)cc1C(=O)NCc1ccccn1 | 790 |
| Cc1ccc(C)c(NC(=O)C(=O)NCC(c2ccc3c(c2)CCCN3C)N2CCOCC2)c1 (stereo not given) | 601 |
| Cc1ccc(-c2ncc3c(=O)n(Cc4ccc(Cl)cc4)c(=O)n(C)c3n2)cc1 | 1360 |
